The source of these data is US11420962B2, “Indene derivatives useful in treating pain and inflammation” (TARO PHARMACEUTICALS INC., priority 2018, dated 2022).

Data set [1] relates to Rat DRG. In words: Rat dorsal root ganglion excitability response (EFS, Ca2+ transients). Type of data set: cell-based. Conditions: Rattus norvegicus; Table 3; electrical field stimulation, Ca5 indicator; read-out: Scoring (EC50, Rat DRG excitability). The procedure:
Dorsal root ganglions (DRGs) were dissected from adult rats. The tissue was processed, and cells were seeded into call culture plates (48 center wells of one quadrant in 384-well plates) and cultured for 2 days prior to Electrical field stimulation (EFS). To visualize the neuronal excitability response, intracellular Ca^+2 transients were monitored using the Ca^+2 indicator, Ca5. Ca5 was added to the cultures 1 h prior to EFS. Representative test compounds of the invention (i.e., test compounds) and reference compound, tetracaine, were added in concentration-response format encompassing six concentrations, performed in duplicate. The highest concentration tested was typically 30 μM with 1 in 3 dilutions generating the subsequent concentrations.
Effects on DRG excitability by the test compounds and standard were evaluated using four EFS protocols as disclosed in Table 2.
Experimental results were performed using two separate sets of plates using separate test compound and standard dilutions, to provide n=2. In the first set of experiments, compounds were added 24 h prior to EFS to increase the possibility to also detect more long-term compound effects. In the second set of experiments the compounds were added directly prior to EFS. Excitability response to EFS was analyzed as the average fluorescence ratio (peak/baseline) change per well. All plates were evaluated using high content imaging equipment post-EFS, imaging the Ca5 background staining to detect any possible compound-related toxic effects.
Average response by the standard compound, tetracaine, was 4.05 μM.

Data set [2] in a line: Metabolism by human liver microsomes. Type of data set: in vitro ADME. Conditions: Table 8; 10 µM, in the presence of NADPH, 1 mg/mL protein. As to the method:
Representative compounds of the invention (i.e., test compounds) and the positive control, 7-ethoxycoumarin, were prepared as stock solutions at 10 mM in DMSO and eventually diluted to 10 μM in the test plate, with an appropriate amount of acetonitrle and tris HCl buffer. Final DMSO and acetonitrile concentrations were […] and 0.5% respectively. NADPH was prepared in tris HCl buffer to a stock of 10 mM. A frozen aliquot of live microsomes was retrieved from the freezer (−80° C.) and thawed by placing the tube on wet ice. After thawing, the tubes were gently mixed and the required amount, transferred to tris HCl buffer. Test compounds or positive control were pre-incubated, separately, for 10 minutes, with liver microsomes (1 mg/mL protein), at 37° C., in 100 mM Tris HCl at pH 7.5. After preincubation the reaction was started by adding 1 mM NADPH (pre-equilibrated to […]) and the reaction allowed to proceed for 60 minutes. At 60 minutes, a 50 μL aliquot was removed and quenched with 200 uL of acetonitrile containing a mixture of internal standards (Tolbutamide (500 ng/mL) and Telmistartan (500 ng/mL)) and vortexed then centrifuged at 4000 rmp for 10 minutes (Eppendorf 5810R). The supernatant was transferred to a 96 well plate for LC-MS/MS analysis.
An LC-MS/MS method was devised for the test compounds and the control, using a AB Sciex API 4000 system coupled to a NEXAR™ UHPLC (Shimadzu) system. Analytes were separated on a Phenomenex Kinetex C18 column (50×2.1 mm, 5 μm) using a gradient that was appropriate for each compound, at a flow rate of 1 ml/minute, utilizing a mobile phase of 0.1% formic acid in MILLI-Q™ water (A) and 0.1% formic acid in acetonitrile (B). The MS instrument was operated in positive mode (ESI+)/negative (ESI−). The multiple reaction monitoring (MRM) transition for test and control compounds was used for the LC-MS/MS analysis. MRM transitions for control compound 7-ethoxycoumarinm were Quadropole 1: 191.0, Quadropole 3: 163.0, dwell time: 75 msec, using curtain gas settings of 5 V, ion-spray voltage of 5500 V, temperature of 50° C. and gas settings for nebulizer and auxiliary set to 30 and 40 psi, respectively. The interface heater was kept on. Entrance potential and collision cell exit potential were varied to tune for a specific compound.
Using a suitable LC-MS/MS method, the percentage of drug remaining at 60 minutes ([…]) was assessed by comparing the average analyte to internal standard area ratio at 60 minutes to the average analyte to internal standard area ratio at 0 time control, as a percentage, from a 5 to 10 μL sample injection.
According to the above assay, the representative compounds listed in Table 8 below were active in the Human liver microsome assay at […] and the % of drug remaining after 60 minutes (PDR60), in the presence of NADPH, was assessed by LC-MS/MS. Average PDR60 for the standard compound, 7-ethoxycoumarin was <=65% in the presence of NADPH. Scoring for the test compounds, in the presence of NADPH, was as follows: “A” represents a PDR^60 of 81 to 100%, “B” represents a PDR^60 of 61 to 80%, “C” represents a PDR^60 of 31 to 60% and “D” represents a PDR^60 of 0 to 30%.
(Liver microsomes are vesicles of endoplasmic reticulum, rich in cytochrome P450 enzymes.)

Broadly, the EC50 is the midpoint of the concentration-response curve. On to `C=C1CC[C@H]2[C@H](CN3CCCCC3)[C@@H]([C@@]3(C)Cc4cn[nH]c4C[C@@H]3CO)CC[C@]12C` [Ia-47, ((5R,6S)-5-methyl-5-((3aS,4R,5S,7aS)-7a-methyl-1-methylene-4-(piperidin-1-ylmethyl)octahydro-1H-inden-5-yl)-4,5,6,7-tetrahydro-1H-indazol-6-yl)methanol], for which the EC50 in data set [1] fell in the range of 6 to 15 µM. Besides, in data set [2], the “Scoring (% of drug remaining after 60 minutes, PDR60)” value is recorded as “D (a PDR^60 of 0 to 30%)”.
`C=C1CC[C@H]2[C@H](CN)[C@@H]([C@@]3(C)Cc4cnn(CC(C)(C)C)c4C[C@@H]3CO)CC[C@]12C` [Ia-22, ((5R,6S)-5-((3aS,4R,5S,7aS)-4-(aminomethyl)-7a-methyl-1-methyleneoctahydro-1H-inden-5-yl)-5-methyl-1-neopentyl-4,5,6,7-tetrahydro-1H-indazol-6-yl)methanol]: the EC50 in data set [1] is 2 to 6 µM. Also, the “Scoring (% of drug remaining after 60 minutes, PDR60)” value in data set [2] is given as “D (a PDR^60 of 0 to 30%)”.
As to `C=C1CC[C@H]2[C@H](CN)[C@@H]([C@@]3(C)Cc4nccnc4C[C@@H]3CO)CC[C@]12C` [Ib-2, ((6S,7R)-7-((3aS,4R,5S,7aS)-4-(aminomethyl)-7a-methyl-1-methyleneoctahydro-1H-inden-5-yl)-7-methyl-5,6,7,8-tetrahydroquinoxalin-6-yl)methanol], the EC50 in data set [1] was over 15 µM. Also, the “Scoring (% of drug remaining after 60 minutes, PDR60)” value in data set [2] is “B (a PDR^60 of 61 to 80%)”.
On to `C=C1CC[C@H]2[C@H](CN)[C@@H]([C@@]3(C)Cc4cncnc4C[C@@H]3CO)CC[C@]12C` [Ic-3, ((6R,7S)-6-((3aS,4R,5S,7aS)-4-(aminomethyl)-7a-methyl-1-methyleneoctahydro-1H-inden-5-yl)-6-methyl-5,6,7,8-tetrahydroquinazolin-7-yl)methanol], for which the EC50 in data set [1] was over 15 µM. For the same compound, the “Scoring (% of drug remaining after 60 minutes, PDR60)” value in data set [2] is “A (a PDR^60 of 81 to 100%)”.
For `C[C@H]1CC[C@H]2[C@H](CN)[C@@H]([C@@]3(C)Cc4cn(-c5ccccc5)nc4C[C@@H]3CO)CC[C@]12C` [Ia-36, ((5R,6S)-5-((1S,3aS,4S,5S,7aR)-4-(aminomethyl)-1,7a-dimethyloctahydro-1H-inden-5-yl)-5-methyl-2-phenyl-4,5,6,7-tetrahydro-2H-indazol-6-yl)methanol], the EC50 in data set [1] was 2 to 6 µM. Further, the “Scoring (% of drug remaining after 60 minutes, PDR60)” value in data set [2] is on record as “A (a PDR^60 of 81 to 100%)”.
The matching figures for `C=C1CC[C@H]2[C@H](CN)[C@@H]([C@@]3(C)Cc4cnn(C(C)(C)C)c4C[C@@H]3CO)CC[C@]12C` [Ia-12, ((5R,6S)-5-((3aS,4R,5S,7aS)-4-(aminomethyl)-7a-methyl-1-methyleneoctahydro-1H-inden-5-yl)-1-(tert-butyl)-5-methyl-4,5,6,7-tetrahydro-1H-indazol-6-yl)methanol]: 2 to 6 µM and “D (a PDR^60 of 0 to 30%)”.
The matching figures for `C=C1CC[C@H]2[C@H](CN)[C@@H]([C@@]3(C)Cc4cc[nH]c4C[C@@H]3CO)CC[C@]12C` [Id-1, ((5R,6S)-5-((3aS,4R,5S,7aS)-4-(aminomethyl)-7a-methyl-1-methyleneoctahydro-1H-inden-5-yl)-5-methyl-4,5,6,7-tetrahydro-1H-indol-6-yl)methanol]: 6 to 15 µM and “C (a PDR^60 of 31 to 60%)”.
For the compound `CC1(C)CCC2=C1CC[C@H]([C@@]1(C)Cc3cn[nH]c3C[C@@H]1CO)[C@H]2CN` [Ia-2, ((5R,6S)-5-((4R,5S)-4-(aminomethyl)-1,1-dimethyl-2,3,4,5,6,7-hexahydro-1H-inden-5-yl)-5-methyl-4,5,6,7-tetrahydro-1H-indazol-6-yl)methanol], the EC50 in data set [1] is over 15 µM. In addition, the “Scoring (% of drug remaining after 60 minutes, PDR60)” value in data set [2] was “B (a PDR^60 of 61 to 80%)”.
The like results for `C=C1CC[C@H]2[C@H](CN)[C@@H]([C@@]3(C)Cc4cn(Cc5ccccc5)nc4C[C@@H]3CO)CC[C@]12C` [Ia-19, ((5R,6S)-5-((3aS,4R,5S,7aS)-4-(aminomethyl)-7a-methyl-1-methyleneoctahydro-1H-inden-5-yl)-2-benzyl-5-methyl-4,5,6,7-tetrahydro-2H-indazol-6-yl)methanol] were, in that order, 2 to 6 µM and “B (a PDR^60 of 61 to 80%)”.
As for `C=C1CC[C@H]2[C@H](CN)[C@@H]([C@@]3(C)Cc4cn(-c5ccccn5)nc4C[C@@H]3CO)CC[C@]12C` [Ia-11, ((5R,6S)-5-((3aS,4R,5S,7aS)-4-(aminomethyl)-7a-methyl-1-methyleneoctahydro-1H-inden-5-yl)-5-methyl-2-(pyridin-2-yl)-4,5,6,7-tetrahydro-2H-indazol-6-yl)methanol], the EC50 in data set [1] lay within 2 to 6 µM. For the same compound, in data set [2], the “Scoring (% of drug remaining after 60 minutes, PDR60)” value is “B (a PDR^60 of 61 to 80%)”.
The like results for `C=C1CC[C@H]2[C@H](CN)[C@@H]([C@@]3(C)Cc4cn[nH]c4C[C@@H]3CN3CCOCC3)CC[C@]12C` [Ia-76, ((3aS,4R,5S,7aS)-7a-methyl-5-((5R,6S)-5-methyl-6-(morpholinomethyl)-4,5,6,7-tetrahydro-1H-indazo1-5-yl)-1-methyleneoctahydro-1H-inden-4-yl)methanamine] were, in that order, 6 to 15 µM and “D (a PDR^60 of 0 to 30%)”.
Consider `C=C1CC[C@H]2[C@H](CN)[C@@H]([C@@]3(C)Cc4cn(C(C)(C)C)nc4C[C@@H]3CO)CC[C@]12C` [Ia-13, ((5R,6S)-5-((3aS,4R,5S,7aS)-4-(aminomethyl)-7a-methyl-1-methyleneoctahydro-1H-inden-5-yl)-2-(tert-butyl)-5-methyl-4,5,6,7-tetrahydro-2H-indazol-6-yl)methanol], for which the EC50 in data set [1] was 2 to 6 µM. Also, the “Scoring (% of drug remaining after 60 minutes, PDR60)” value in data set [2] was “A (a PDR^60 of 81 to 100%)”.
Take `C[C@H]1CC[C@H]2[C@H](CN)[C@@H]([C@@]3(C)Cc4cn(C(C)(C)C)nc4C[C@@H]3CO)CC[C@]12C` [Ia-41, ((5R,6S)-5-((1S,3aS,4S,5S,7aR)-4-(aminomethyl)-1,7a-dimethyloctahydro-1H-inden-5-yl)-2-(tert-butyl)-5-methyl-4,5,6,7-tetrahydro-2H-indazol-6-yl)methanol]: the EC50 in data set [1] is under 2 µM. In data set [2], the “Scoring (% of drug remaining after 60 minutes, PDR60)” value is “A (a PDR^60 of 81 to 100%)”.
Consider `CC=C1CC[C@H]2[C@H](CN)[C@@H]([C@@]3(C)Cc4cn[nH]c4C[C@@H]3CO)CC[C@]12C` [Ia-65, ((5R,6S)-5-((3aS,4R,5S,7aS)-4-(aminomethyl)-1-ethylidene-7a-methyloctahydro-1H-inden-5-yl)-5-methyl-4,5,6,7-tetrahydro-1H-indazol-6-yl)methanol], for which the EC50 in data set [1] lay in the range of 6 to 15 µM. The “Scoring (% of drug remaining after 60 minutes, PDR60)” value in data set [2] is “A (a PDR^60 of 81 to 100%)”.
Take `C=C1CC[C@H]2[C@H](CN3CCN(C)CC3)[C@@H]([C@@]3(C)Cc4cn[nH]c4C[C@@H]3CO)CC[C@]12C` [Ia-48, ((5R,6S)-5-methyl-5-((3aS,4R,5S,7aS)-7a-methyl-1-methylene-4-((4-methylpiperazin-1-yl)methyl)octahydro-1H-inden-5-yl)-4,5,6,7-tetrahydro-1H-indazol-6-yl)methanol]: the EC50 in data set [1] fell in the range of 6 to 15 µM. Moreover, the “Scoring (% of drug remaining after 60 minutes, PDR60)” value in data set [2] was “D (a PDR^60 of 0 to 30%)”.
